Earlier results on one compound are cited in patent US7169813B2, “4-oxo-fenretinide, administered alone and in combination with fenretinide, as preventive and therapeutic agent for cancer” (Fondazione IRCCS “Istituto Nazionale Dei Tumori”, priority 2004, dated 2007).

Each structure is given as a SMILES string.

One data set has as its system human ovarian carcinoma. To be noted: mice bearing a human ovarian carcinoma, cited from earlier work.
Data set [1] concerns different tumor cell lines. The following applies: cited from earlier work.

With `COc1ccc(NC(=O)\C=C(C)/C=C/C=C(C)\C=C\C2=C(C)CCCC2(C)C)cc1` (stereo in doubt) [4-MPR, N-(4-methoxyphenyl)retinamide], the antitumor effect entry with human ovarian carcinoma is reported as “no antitumor effect”. Further, in the data set on human ovarian carcinoma (with 4-HPR), the “effect on 4-HPR activity” value is “did not increase 4-HPR activity”. In addition, the inhibiting proliferation entry in data set [1] is “ineffective”.
